Measurements reported in paper PMC12277590 (Drug Design, Development and Therapy, 2025).
Like-named read-outs stand apart in the source and are kept apart here. Blank lines part the entries; values can stand above or below the molecule they belong to.

Assays:
[1] = format: in vivo, male Sprague-Dawley rats; conditions: rats
[2] = cited from earlier work
P-gp = conditions: read-out: IC50, P-gp; cited from earlier work
BCRP = conditions: read-out: IC50, BCRP; cited from earlier work
MRP2 = conditions: read-out: IC50, MRP2; cited from earlier work
plasma proteins = conditions: cited from earlier work
[3] = cited from earlier work; remark: listed apart in the source
CYP2C19 = conditions: in vitro; cited from earlier work
[4] = markedly low water solubility and high permeability; cited from earlier work
[5] = oral intake in human; cited from earlier work
human UGT1A1 = conditions: ref 14; cited from earlier work
human UGT1A9 = conditions: ref 14; cited from earlier work
UGT1A3 = conditions: ref 14; cited from earlier work
[6] = after multiple doses of telmisartan vs donafenib alone
[7] = after multiple doses of donafenib vs telmisartan alone
[8] = after multiple doses of telmisartan vs sorafenib alone
[9] = oral sorafenib in humans, mass balance

decrease in t1/2 of donafenib [1, 6]: 35.0%
increase in CLz/F of donafenib [1, 6]: 87.5%
Compound: [2H]C([2H])([2H])NC(=O)c1cc(Oc2ccc(NC(=O)Nc3ccc(Cl)c(C(F)(F)F)c3)cc2)ccn1 [Donafenib]
N-oxidation (M2), % of total drug ([2]; ref 41): 24.76%
glucuronidation (M7), % of total drug ([2]; ref 41): 4.82%

decrease in CLz/F of telmisartan [1, 7]: 57.3%
decrease in Vz/F of telmisartan [1, 7]: 45.6%
increase in AUC0-∞ of telmisartan [1, 7]: 0.98 fold
effect of sorafenib on the pharmacokinetic parameters of telmisartan ([1]; multiple doses of sorafenib vs telmisartan alone): does not significantly affect
Compound: CCCc1nc2c(C)cc(-c3nc4ccccc4n3C)cc2n1Cc1ccc(-c2ccccc2C(=O)O)cc1 [Telmisartan]
IC50 (P-gp): 12.4 µM
IC50 (BCRP): 6.7 µM
IC50 (MRP2): 38.2 µM
binding to plasma proteins (plasma proteins; telmisartan): 99.5%
proportion metabolized to acyl-glucuronides by UGT1A3 ([3]; ref 25,27): 11%
half-life for elimination ([3]; ref 26): about 24 hours
proportion metabolized to acyl-glucuronides by UGT1A3 ([3]; ref 34): 11%
inhibition of CYP2C19 (CYP2C19): minor inhibition
BCS class [4]: class II

decrease in CLz/F of sorafenib [1, 8]: 46.0%
decrease in Vz/F of sorafenib [1, 8]: 50.4%
increase in AUC0-t of sorafenib [1, 8]: 77.7%
increase in AUC0-∞ of sorafenib [1, 8]: 75.8%
increase in Cmax of sorafenib [1, 8]: 60.9%
Compound: CNC(=O)c1cc(Oc2ccc(NC(=O)Nc3ccc(Cl)c(C(F)(F)F)c3)cc2)ccn1 [Sorafenib]
time to maximum plasma concentration [5]: about 3 hours
binding to plasma proteins (plasma proteins; sorafenib, human): more than 99%
drug eliminated as oxidative metabolites [2, 9]: less than 5%
drug eliminated as sorafenib-β-D-glucuronide (SG) [2, 9]: 15%
inhibition of human UGT1A1 (human UGT1A1): potent inhibitor
inhibition of human UGT1A9 (human UGT1A9): potent inhibitor
inhibitory effects on UGT1A3 (UGT1A3): no inhibitory effects
